This series in a line: Ring-closing metathesis (C=C formation) of fluorous-tagged (FDIPES) terminal dienes with Hoveyda-Grubbs 2nd generation catalyst (typically 2 mol%, 1-5 mol%), usually with 1,4-benzoquinone (4-10 mol%); quench P(CH2OH)3/Et3N/silica. The settings on record: MTBE, 2.0 mM, 55.0 °C.

Each structure is given as a SMILES string.

For `CC(C)[Si](CCC(F)(F)C(F)(F)C(F)(F)C(F)(F)C(F)(F)C(F)(F)C(F)(F)C(F)(F)F)(OC[C@H]1CC=CCC[C@@H](O[Si](C)(C)C(C)(C)C)[C@H](C)CN(S(=O)(=O)C(F)(F)F)Cc2ccccc2CN1S(=O)(=O)c1ccccc1[N+](=O)[O-])C(C)C` [23 (13+11, from 22; 2 steps RCM + denosylation; E/Z 30:70)], the ring closure, isolated yield (from C=CCC[C@@H](O[Si](C)(C)C(C)(C)C)[C@H](C)CN(Cc1ccccc1CN([C@H](CC=C)CO[Si](CCC(F)(F)C(F)(F)C(F)(F)C(F)(F)C(F)(F)C(F)(F)C(F)(F)C(F)(F)F)(C(C)C)C(C)C)S(=O)(=O)c1ccccc1[N+](=O)[O-])S(=O)(=O)C(F)(F)F, 15-membered ring) was found to be 84%. With `CC(C)[Si](CCC(F)(F)C(F)(F)C(F)(F)C(F)(F)C(F)(F)C(F)(F)C(F)(F)C(F)(F)F)(OC[C@H]1CC=CCOc2ccccc2COC(=O)N(S(=O)(=O)c2ccccc2[N+](=O)[O-])CC2=CC=C(CN1S(=O)(=O)c1ccccc1[N+](=O)[O-])S2)C(C)C` [31 (15+10; E/Z >98:<2)], the ring closure, isolated yield (from C=CCOc1ccccc1COC(=O)N(Cc1ccc(CN([C@H](CC=C)CO[Si](CCC(F)(F)C(F)(F)C(F)(F)C(F)(F)C(F)(F)C(F)(F)C(F)(F)C(F)(F)F)(C(C)C)C(C)C)S(=O)(=O)c2ccccc2[N+](=O)[O-])s1)S(=O)(=O)c1ccccc1[N+](=O)[O-], 18-membered ring, 16.0 h) was found to be 60%. For the setting “from C=CCOC[C@@H](COC(=O)N(Cc1cccc(CN([C@H](COCC=C)CO[Si](CCC(F)(F)C(F)(F)C(F)(F)C(F)(F)C(F)(F)C(F)(F)C(F)(F)C(F)(F)F)(C(C)C)C(C)C)S(=O)(=O)c2ccccc2[N+](=O)[O-])c1)S(=O)(=O)c1ccccc1[N+](=O)[O-])c1ccc(OC)cc1OC, 20-membered ring, 24.0 h”, `COc1ccc([C@H]2COCC=CCOC[C@H](CO[Si](CCC(F)(F)C(F)(F)C(F)(F)C(F)(F)C(F)(F)C(F)(F)C(F)(F)C(F)(F)F)(C(C)C)C(C)C)N(S(=O)(=O)c3ccccc3[N+](=O)[O-])Cc3cccc(c3)CN(S(=O)(=O)c3ccccc3[N+](=O)[O-])C(=O)OC2)c(OC)c1` [36 (17+9; E/Z 25:75)] showed a ring closure, isolated yield of 76%.

Consider `CC(C)[Si](CCC(F)(F)C(F)(F)C(F)(F)C(F)(F)C(F)(F)C(F)(F)C(F)(F)C(F)(F)F)(OC[C@@H]1COCC=CCCN(S(=O)(=O)C(F)(F)F)Cc2ccccc2CN1S(=O)(=O)c1ccccc1[N+](=O)[O-])C(C)C` [35 (16+12; E/Z 70:30)], for which the ring closure, isolated yield (from C=CCCN(Cc1ccccc1CN([C@@H](COCC=C)CO[Si](CCC(F)(F)C(F)(F)C(F)(F)C(F)(F)C(F)(F)C(F)(F)C(F)(F)C(F)(F)F)(C(C)C)C(C)C)S(=O)(=O)c1ccccc1[N+](=O)[O-])S(=O)(=O)C(F)(F)F, 14-membered ring, 36.0 h) is 98%.

Turning to `COc1ccc([C@H]2COCC=CCOC[C@@H](CO[Si](CCC(F)(F)C(F)(F)C(F)(F)C(F)(F)C(F)(F)C(F)(F)C(F)(F)C(F)(F)F)(C(C)C)C(C)C)N(S(=O)(=O)c3ccccc3[N+](=O)[O-])Cc3ccccc3CN(S(=O)(=O)c3ccccc3[N+](=O)[O-])C(=O)OC2)c(OC)c1` [32 (16+9; E/Z >98:<2)], for the setting “from C=CCOC[C@@H](COC(=O)N(Cc1ccccc1CN([C@@H](COCC=C)CO[Si](CCC(F)(F)C(F)(F)C(F)(F)C(F)(F)C(F)(F)C(F)(F)C(F)(F)C(F)(F)F)(C(C)C)C(C)C)S(=O)(=O)c1ccccc1[N+](=O)[O-])S(=O)(=O)c1ccccc1[N+](=O)[O-])c1ccc(OC)cc1OC, 19-membered ring, 36.0 h”, the ring closure, isolated yield is 88%. `CC(C)[Si](CCC(F)(F)C(F)(F)C(F)(F)C(F)(F)C(F)(F)C(F)(F)C(F)(F)C(F)(F)F)(OC[C@H]1COCC=CCCN(S(=O)(=O)C(F)(F)F)Cc2cccc(c2)CN1S(=O)(=O)c1ccccc1[N+](=O)[O-])C(C)C` [38 (17+12; E 55% + Z 15%)] yielded a ring closure, isolated yield (from C=CCCN(Cc1cccc(CN([C@H](COCC=C)CO[Si](CCC(F)(F)C(F)(F)C(F)(F)C(F)(F)C(F)(F)C(F)(F)C(F)(F)C(F)(F)F)(C(C)C)C(C)C)S(=O)(=O)c2ccccc2[N+](=O)[O-])c1)S(=O)(=O)C(F)(F)F, 15-membered ring, 48.0 h) of 70%. Take `COc1ccc([C@H]2COCC=CC[C@H](CO[Si](CCC(F)(F)C(F)(F)C(F)(F)C(F)(F)C(F)(F)C(F)(F)C(F)(F)C(F)(F)F)(C(C)C)C(C)C)N(S(=O)(=O)c3ccccc3[N+](=O)[O-])Cc3ccccc3CN(S(=O)(=O)c3ccccc3[N+](=O)[O-])C(=O)OC2)c(OC)c1` [24 (13+9; 2 steps RCM + denosylation; E/Z 60:40)]: the ring closure, isolated yield (from C=CCOC[C@@H](COC(=O)N(Cc1ccccc1CN([C@H](CC=C)CO[Si](CCC(F)(F)C(F)(F)C(F)(F)C(F)(F)C(F)(F)C(F)(F)C(F)(F)C(F)(F)F)(C(C)C)C(C)C)S(=O)(=O)c1ccccc1[N+](=O)[O-])S(=O)(=O)c1ccccc1[N+](=O)[O-])c1ccc(OC)cc1OC, 17-membered ring, 24.0 h) amounted to 33%. `COc1ccc([C@H]2COCC=CC[C@H](CO[Si](CCC(F)(F)C(F)(F)C(F)(F)C(F)(F)C(F)(F)C(F)(F)C(F)(F)C(F)(F)F)(C(C)C)C(C)C)N(S(=O)(=O)c3ccccc3[N+](=O)[O-])Cc3cccc(c3)CN(S(=O)(=O)c3ccccc3[N+](=O)[O-])C(=O)OC2)c(OC)c1` [27 (14+9; E/Z 60:40)] displayed a ring closure, isolated yield (from C=CCOC[C@@H](COC(=O)N(Cc1cccc(CN([C@H](CC=C)CO[Si](CCC(F)(F)C(F)(F)C(F)(F)C(F)(F)C(F)(F)C(F)(F)C(F)(F)C(F)(F)F)(C(C)C)C(C)C)S(=O)(=O)c2ccccc2[N+](=O)[O-])c1)S(=O)(=O)c1ccccc1[N+](=O)[O-])c1ccc(OC)cc1OC, 18-membered ring, 24.0 h) of 56%. With `CC(C)[Si](CCC(F)(F)C(F)(F)C(F)(F)C(F)(F)C(F)(F)C(F)(F)C(F)(F)C(F)(F)F)(OC[C@@H]1COCC=CCC[C@@H](O[Si](C)(C)C(C)(C)C)[C@H](C)CN(S(=O)(=O)C(F)(F)F)Cc2ccccc2CN1S(=O)(=O)c1ccccc1[N+](=O)[O-])C(C)C` [34 (16+11; E/Z >98:<2)], the ring closure, isolated yield (from C=CCC[C@@H](O[Si](C)(C)C(C)(C)C)[C@H](C)CN(Cc1ccccc1CN([C@@H](COCC=C)CO[Si](CCC(F)(F)C(F)(F)C(F)(F)C(F)(F)C(F)(F)C(F)(F)C(F)(F)C(F)(F)F)(C(C)C)C(C)C)S(=O)(=O)c1ccccc1[N+](=O)[O-])S(=O)(=O)C(F)(F)F, 17-membered ring, 16.0 h) is 61%. In turn, `CC(C)[Si](CCC(F)(F)C(F)(F)C(F)(F)C(F)(F)C(F)(F)C(F)(F)C(F)(F)C(F)(F)F)(OC[C@H]1CC=CCC[C@@H](O[Si](C)(C)C(C)(C)C)[C@H](C)C(=O)N(S(=O)(=O)c2ccccc2[N+](=O)[O-])CC2=CC=C(CN1S(=O)(=O)c1ccccc1[N+](=O)[O-])S2)C(C)C` [3 (from 2; E/Z 65:35)] gave a ring closure, isolated yield (from C=CCC[C@@H](O[Si](C)(C)C(C)(C)C)[C@H](C)C(=O)N(Cc1ccc(CN([C@H](CC=C)CO[Si](CCC(F)(F)C(F)(F)C(F)(F)C(F)(F)C(F)(F)C(F)(F)C(F)(F)C(F)(F)F)(C(C)C)C(C)C)S(=O)(=O)c2ccccc2[N+](=O)[O-])s1)S(=O)(=O)c1ccccc1[N+](=O)[O-], 16-membered ring, 16.0 h) of 40%. Take `CC(C)[Si](CCC(F)(F)C(F)(F)C(F)(F)C(F)(F)C(F)(F)C(F)(F)C(F)(F)C(F)(F)F)(OC[C@H]1CC=CCCN(S(=O)(=O)C(F)(F)F)Cc2cccc(c2)CN1S(=O)(=O)c1ccccc1[N+](=O)[O-])C(C)C` (mixture of isomers) [30 (14+12; E/Z mixture)]: the ring closure, isolated yield (from C=CCCN(Cc1cccc(CN([C@H](CC=C)CO[Si](CCC(F)(F)C(F)(F)C(F)(F)C(F)(F)C(F)(F)C(F)(F)C(F)(F)C(F)(F)F)(C(C)C)C(C)C)S(=O)(=O)c2ccccc2[N+](=O)[O-])c1)S(=O)(=O)C(F)(F)F, 13-membered ring, 16.0 h) came out at 47%. `CC(C)[Si](CCC(F)(F)C(F)(F)C(F)(F)C(F)(F)C(F)(F)C(F)(F)C(F)(F)C(F)(F)F)(OC[C@H]1CC=CCOc2ccccc2COC(=O)N(S(=O)(=O)c2ccccc2[N+](=O)[O-])Cc2ccccc2CN1S(=O)(=O)c1ccccc1[N+](=O)[O-])C(C)C` [25 (13+10; E/Z 65:35)] showed a ring closure, isolated yield (from C=CCOc1ccccc1COC(=O)N(Cc1ccccc1CN([C@H](CC=C)CO[Si](CCC(F)(F)C(F)(F)C(F)(F)C(F)(F)C(F)(F)C(F)(F)C(F)(F)C(F)(F)F)(C(C)C)C(C)C)S(=O)(=O)c1ccccc1[N+](=O)[O-])S(=O)(=O)c1ccccc1[N+](=O)[O-], 17-membered ring, 24.0 h) of 56%. With `CC(C)[Si](CCC(F)(F)C(F)(F)C(F)(F)C(F)(F)C(F)(F)C(F)(F)C(F)(F)C(F)(F)F)(OC[C@@H]1COCC=CCOc2ccccc2COC(=O)N(S(=O)(=O)c2ccccc2[N+](=O)[O-])Cc2ccccc2CN1S(=O)(=O)c1ccccc1[N+](=O)[O-])C(C)C` [33 (16+10; E/Z >98:<2)], under “from C=CCOC[C@@H](CO[Si](CCC(F)(F)C(F)(F)C(F)(F)C(F)(F)C(F)(F)C(F)(F)C(F)(F)C(F)(F)F)(C(C)C)C(C)C)N(Cc1ccccc1CN(C(=O)OCc1ccccc1OCC=C)S(=O)(=O)c1ccccc1[N+](=O)[O-])S(=O)(=O)c1ccccc1[N+](=O)[O-], 19-membered ring, 48.0 h”, the ring closure, isolated yield was 75%. On to `CC(C)[Si](CCC(F)(F)C(F)(F)C(F)(F)C(F)(F)C(F)(F)C(F)(F)C(F)(F)C(F)(F)F)(OC[C@H]1CC=CCC[C@@H](O[Si](C)(C)C(C)(C)C)[C@H](C)CN(S(=O)(=O)C(F)(F)F)Cc2cccc(c2)CN1S(=O)(=O)c1ccccc1[N+](=O)[O-])C(C)C` [29 (14+11; E/Z 15:85)], for which the ring closure, isolated yield (from C=CCC[C@@H](O[Si](C)(C)C(C)(C)C)[C@H](C)CN(Cc1cccc(CN([C@H](CC=C)CO[Si](CCC(F)(F)C(F)(F)C(F)(F)C(F)(F)C(F)(F)C(F)(F)C(F)(F)C(F)(F)F)(C(C)C)C(C)C)S(=O)(=O)c2ccccc2[N+](=O)[O-])c1)S(=O)(=O)C(F)(F)F, 16-membered ring, 4.0 h) was 78%.
